The source of these data is patent publication US20260355196A1, “INHIBITORS AND DEGRADERS OF PIP4K PROTEIN” (Larkspur Biosciences, Inc., priority 2023, published 2026).

A word on the DC50: it is the midpoint of the concentration-degradation curve.

The first test concerns the target T1, PIP4K2C (Homo sapiens, UniProt Q8TBX8).
T1 sequence (Q8TBX8 1-421): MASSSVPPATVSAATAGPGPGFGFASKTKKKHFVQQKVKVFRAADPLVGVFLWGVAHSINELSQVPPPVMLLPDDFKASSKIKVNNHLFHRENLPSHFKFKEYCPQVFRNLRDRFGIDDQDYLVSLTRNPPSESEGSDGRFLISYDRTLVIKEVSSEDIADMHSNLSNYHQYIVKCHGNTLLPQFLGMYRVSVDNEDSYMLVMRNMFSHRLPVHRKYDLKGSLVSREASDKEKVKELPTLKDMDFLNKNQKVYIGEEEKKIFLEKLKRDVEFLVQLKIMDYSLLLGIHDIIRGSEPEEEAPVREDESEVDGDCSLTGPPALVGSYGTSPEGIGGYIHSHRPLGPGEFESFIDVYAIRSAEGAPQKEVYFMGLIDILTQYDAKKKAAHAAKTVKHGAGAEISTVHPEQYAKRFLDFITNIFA
Put plainly: HiBiT PIP4K2C degradation assay in MOLT-4 cells (endogenous PIP4K2C C-terminally tagged with HiBiT). The format is cell-based. Also on record: untagged in primary human PBMCs and monocyte-derived dendritic cells. Particulars: 6 hours of incubation time, rather than 24 hours; MOLT-4, top concentration 10 micromolar; read-out: HiBIT-degradation MOLT4 PIP4k2C DC50 (6 hours, marked *). An outline of the steps:
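MOLT-4 cells with endogenous PIP4K2C C-terminally HiBiT-tagged by CRISPR were treated with a 10-point, 3-fold dilution series from 10 micromolar, in duplicate, for 24 h or 6 h at 37 C. Remaining tagged protein read by HiBiT lytic luminescence; DC50 from Hill-equation fit.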
For orientation: The HiBiT peptide binds its large partner to form an active luciferase.
For `O=C1CCC(Nc2ccc(C3CCN(C4CCN(C(=O)O[C@H]5CC[C@H](Nc6ncc(F)c(-c7cccc(N8CCCCC8)c7)n6)CC5)CC4)CC3)c(F)c2)C(=O)N1` (stereo partly drawn) [Compound 689, trans-4-((5-fluoro-4-(3-(piperidin-1-yl)phenyl)pyrimidin-2-yl)amino)cyclohexyl 4-(4-((2,6-dioxopiperidin-3-yl)amino)-2-fluorophenyl)-[1,4′-bipiperidine]-1′-carboxylate], the DC50 was less than 500 nM.

`O=C1CCC(Nc2ccc(C3CCN(C4CCN(C(=O)O[C@H]5CC[C@H](Nc6ncc(F)c(-c7cccc(N8CCOCC8=O)c7)n6)CC5)CC4)CC3)c(F)c2)C(=O)N1` (stereo partly drawn) [Compound 690, trans-4-((5-fluoro-4-(3-(3-oxomorpholino)phenyl)pyrimidin-2-yl)amino)cyclohexyl 4-(4-((2,6-dioxopiperidin-3-yl)amino)-2-fluorophenyl)-[1,4′-bipiperidine]-1′-carboxylate]: the DC50 was less than 500 nM.

As for `O=C1CCC(Nc2ccc(N3CCC(CC4(O)CCN(C(=O)[C@H]5CC[C@H](Nc6ncc(F)c(-c7cccc(-n8ccccc8=O)c7)n6)CC5)CC4)CC3)c(F)c2)C(=O)N1` (stereo partly drawn) [Compound 691, trans-3-((3-fluoro-4-(4-((1-(4-((5-fluoro-4-(3-(2-oxopyridin-1 (2H)-yl)phenyl)pyrimidin-2-yl)amino)cyclohexane-1-carbonyl)-4-hydroxypiperidin-4-yl)methyl)piperidin-1-yl)phenyl)amino)piperidine-2,6-dione], the DC50 is less than 500 nM.

For `O=C1CCC(Nc2ccc(C3CCN([C@H]4CC[C@H](NC(=O)[C@H]5CC[C@H](Nc6ncc(F)c(-c7cccc(-n8ccccc8=O)c7)n6)CC5)CC4)CC3(F)F)c(F)c2)C(=O)N1` (stereo partly drawn) [Compound 692, trans-N-(trans-4-(4-(4-((2,6-dioxopiperidin-3-yl)amino)-2-fluorophenyl)-3,3-difluoropiperidin-1-yl)cyclohexyl)-4-((5-fluoro-4-(3-(2-oxopyridin-1 (2H)-yl)phenyl)pyrimidin-2-yl)amino)cyclohexane-1-carboxamide], the DC50 was less than 500 nM.

On to `O=C1CCC(Nc2ccc(C3CCN(C[C@H]4CC[C@H](C(=O)N5CCC(Nc6ncc(F)c(-c7cccc(-n8ccccc8=O)c7)n6)CC5)CC4)CC3)c(F)c2)C(=O)N1` (stereo partly drawn) [Compound 693, 3-((3-fluoro-4-(1-(((trans)-4-(4-((5-fluoro-4-(3-(2-oxopyridin-1 (2H)-yl)phenyl)pyrimidin-2-yl)amino)piperidine-1-carbonyl)cyclohexyl)methyl)piperidin-4-yl)phenyl)amino)piperidine-2,6-dione], for which the DC50 is less than 500 nM.

As to `O=C1CCC(Nc2ccc(C3CCN(C4CCC(C(=O)N[C@H]5CC[C@H](Nc6ncc(F)c(-c7cccc(-n8ccccc8=O)c7)n6)CC5)CC4F)CC3)c(F)c2)C(=O)N1` (stereo partly drawn) [Compound 694, (1R,3S,4R)-4-(4-(4-((2,6-dioxopiperidin-3-yl)amino)-2-fluorophenyl)piperidin-1-yl)-3-fluoro-N-((trans)-4-((5-fluoro-4-(3-(2-oxopyridin-1 (2H)-yl)phenyl)pyrimidin-2-yl)amino)cyclohexyl)cyclohexane-1-carboxamide], the DC50 was less than 500 nM.

For the compound `O=C1CCC(Nc2ccc(C3CCN(C4CCN(C(=O)O[C@H]5CC[C@H](Nc6ncc(F)c(-c7cccc(-n8ccccc8=O)c7)n6)CC5)CC4F)CC3)c(F)c2)C(=O)N1` (stereo partly drawn) [Compound 695, trans-4-((5-fluoro-4-(3-(2-oxopyridin-1 (2H)-yl)phenyl)pyrimidin-2-yl)amino)cyclohexyl 4-(4-((2,6-dioxopiperidin-3-yl)amino)-2-fluorophenyl)-3′-fluoro-[1,4′-bipiperidine]-1′-carboxylate], the DC50 is less than 500 nM.

With `O=C1CCC(Nc2ccc(C3CCN([C@H]4CC[C@H](NC(=O)[C@H]5CC[C@H](Nc6ncc(F)c(-c7ccnc(-n8ccccc8=O)c7)n6)CC5)CC4)CC3)c(F)c2)C(=O)N1` (stereo partly drawn) [Compound 696, trans-N-(trans-4-(4-(4-((2,6-dioxopiperidin-3-yl)amino)-2-fluorophenyl)piperidin-1-yl)cyclohexyl)-4-((5-fluoro-4-(2-oxo-2H-[1,2′-bipyridin]-4′-yl)pyrimidin-2-yl)amino)cyclohexane-1-carboxamide], the DC50 is less than 500 nM.

For the compound `O=C1CCC(Nc2ccc(C3CCN(CCC4CCN(C(=O)O[C@H]5CC[C@H](Nc6ncc(F)c(-c7cccc(-n8ccccc8=O)c7)n6)CC5)CC4)CC3)c(F)c2)C(=O)N1` (stereo partly drawn) [Compound 697, trans-4-((5-fluoro-4-(3-(2-oxopyridin-1 (2H)-yl)phenyl)pyrimidin-2-yl)amino)cyclohexyl 4-(2-(4-(4-((2,6-dioxopiperidin-3-yl)amino)-2-fluorophenyl)piperidin-1-yl)ethyl)piperidine-1-carboxylate], the DC50 was less than 500 nM.

As to `O=C1CCC(Nc2ccc(N3CCC(N4CCN(C(=O)O[C@H]5CC[C@H](Nc6ncc(F)c(-c7cccc(-n8ccccc8=O)c7)n6)CC5)CC4)CC3)c(F)c2)C(=O)N1` (stereo partly drawn) [Compound 698, trans-4-((5-fluoro-4-(3-(2-oxopyridin-1 (2H)-yl)phenyl)pyrimidin-2-yl)amino)cyclohexyl 4-(1-(4-((2,6-dioxopiperidin-3-yl)amino)-2-fluorophenyl)piperidin-4-yl)piperazine-1-carboxylate], the DC50 was less than 500 nM.

Turning to `O=C1CCC(Nc2ccc(N3CCN([C@H]4CC[C@H](OC(=O)N5CCC(Nc6ncc(F)c(-c7cccc(-n8ccccc8=O)c7)n6)CC5)CC4)CC3)c(F)c2)C(=O)N1` (stereo partly drawn) [Compound 699, trans-(1R,4r)-4-(4-(4-(((R)-2,6-dioxopiperidin-3-yl)amino)-2-fluorophenyl)piperazin-1-yl)cyclohexyl 4-((5-fluoro-4-(3-(2-oxopyridin-1 (2H)-yl)phenyl)pyrimidin-2-yl)amino)piperidine-1-carboxylate], the DC50 was less than 500 nM.

For `O=C1CCC(Nc2ccc(N3CCC(N4CCC(NC(=O)[C@H]5CC[C@H](Nc6ncc(F)c(-c7cccc(N8CCCCC8)c7)n6)CC5)CC4)C(F)C3)c(F)c2)C(=O)N1` (stereo partly drawn) [Compound 700, trans-N-(1′-(4-((2,6-dioxopiperidin-3-yl)amino)-2-fluorophenyl)-3′-fluoro-[1,4′-bipiperidin]-4-yl)-4-((5-fluoro-4-(3-(piperidin-1-yl)phenyl)pyrimidin-2-yl)amino)cyclohexane-1-carboxamide], the DC50 was less than 500 nM.

In the case of `O=C1CCC(Nc2ccc(N3CCC(N4CCC(NC(=O)[C@H]5CC[C@H](Nc6ncc(F)c(-c7cccc(N8CCCCC8=O)c7)n6)CC5)CC4)C(F)C3)c(F)c2)C(=O)N1` (stereo partly drawn) [Compound 701, trans-N-(1′-(4-((2,6-dioxopiperidin-3-yl)amino)-2-fluorophenyl)-3′-fluoro-[1,4′-bipiperidin]-4-yl)-4-((5-fluoro-4-(3-(2-oxopiperidin-1-yl)phenyl)pyrimidin-2-yl)amino)cyclohexane-1-carboxamide], the DC50 is less than 500 nM.

As to `O=C1CCC(Nc2ccc(N3CCC(N4CCC(C(=O)NC5CCC(Nc6ncc(F)c(-c7cccc(-c8ccc[nH]c8=O)c7)n6)CC5)CC4)CC3)c(F)c2)C(=O)N1` [Compound 702, trans-1′-(4-(((S)-2,6-dioxopiperidin-3-yl)amino)-2-fluorophenyl)-N-((1r,4r)-4-((5-fluoro-4-(3-(2-oxo-1,2-dihydropyridin-3-yl)phenyl)pyrimidin-2-yl)amino)cyclohexyl)-[1,4′-bipiperidine]-4-carboxamide], the DC50 was less than 500 nM.

`O=C1CCC(Nc2ccc(N3CCN(C[C@H]4CC[C@H](CC(=O)N[C@H]5CC[C@H](Nc6ncc(F)c(-c7cccc(-c8ccc[nH]c8=O)c7)n6)CC5)CC4)CC3)c(F)c2)C(=O)N1` (stereo partly drawn) [Compound 703, trans-2-((1r,4R)-4-((4-(4-((2,6-dioxopiperidin-3-yl)amino)-2-fluorophenyl)piperazin-1-yl)methyl)cyclohexyl)-N-((1r,4R)-4-((5-fluoro-4-(3-(2-oxo-1,2-dihydropyridin-3-yl)phenyl)pyrimidin-2-yl)amino)cyclohexyl)acetamide]: the DC50 was less than 500 nM.

As to `O=C1CCC(Nc2ccc(N3CCC(CN4CCC(CC(=O)N[C@H]5CC[C@H](Nc6ncc(F)c(-c7cccc(-n8ccccc8=O)c7)n6)CC5)CC4)CC3)c(F)c2)C(=O)N1` (stereo partly drawn) [Compound 704, trans-2-(1-((1-(4-((2,6-dioxopiperidin-3-yl)amino)-2-fluorophenyl)piperidin-4-yl)methyl)piperidin-4-yl)-N-(4-((5-fluoro-4-(3-(2-oxopyridin-1 (2H)-yl)phenyl)pyrimidin-2-yl)amino)cyclohexyl)acetamide], the DC50 was less than 500 nM.

Staying with this test, now noted: 24 hours incubation, MOLT-4, top concentration 10 micromolar; read-out: HiBIT-degradation MOLT4 PIP4k2C 24 hours DC50.
As to `O=C1CCC(N2Cc3cc(C4CCN(C5CCCN(CC(=O)N6CCC(Nc7ncc(Cl)c(-c8cccc(-c9ccc(F)cc9)c8)n7)CC6)C5)CC4)ccc3C2=O)C(=O)N1` (centres unmarked) [Compound 705, 3-(5-(1′-(2-(4-((5-chloro-4-(4′-fluoro-[1,1′-biphenyl]-3-yl)pyrimidin-2-yl)amino)piperidin-1-yl)-2-oxoethyl)-[1,3′-bipiperidin]-4-yl)-1-oxoisoindolin-2-yl)piperidine-2,6-dione], the DC50 was less than 500 nM.
